Laboratory results as given in patent US20220315578A1, “BRD9 BIFUNCTIONAL DEGRADERS AND THEIR METHODS OF USE” (NOVARTIS AG, priority 2019, published 2022).

Molecular target: T1, BRD9-GFP (Homo sapiens, UniProt Q9H8M2)
T1 construct: CHYSEL (2A cis-acting hydrolase element) remnant after GFP; mCherry is split off as a separate protein (C); expressed in transfected cells; host or cells: HEK293A cells (Invitrogen R70507), lentiviral transduction with pLenti6-BRD9-GFP-CHYSEL-mCherry, blasticidin selection
T1 sequence (Q9H8M2 1-597): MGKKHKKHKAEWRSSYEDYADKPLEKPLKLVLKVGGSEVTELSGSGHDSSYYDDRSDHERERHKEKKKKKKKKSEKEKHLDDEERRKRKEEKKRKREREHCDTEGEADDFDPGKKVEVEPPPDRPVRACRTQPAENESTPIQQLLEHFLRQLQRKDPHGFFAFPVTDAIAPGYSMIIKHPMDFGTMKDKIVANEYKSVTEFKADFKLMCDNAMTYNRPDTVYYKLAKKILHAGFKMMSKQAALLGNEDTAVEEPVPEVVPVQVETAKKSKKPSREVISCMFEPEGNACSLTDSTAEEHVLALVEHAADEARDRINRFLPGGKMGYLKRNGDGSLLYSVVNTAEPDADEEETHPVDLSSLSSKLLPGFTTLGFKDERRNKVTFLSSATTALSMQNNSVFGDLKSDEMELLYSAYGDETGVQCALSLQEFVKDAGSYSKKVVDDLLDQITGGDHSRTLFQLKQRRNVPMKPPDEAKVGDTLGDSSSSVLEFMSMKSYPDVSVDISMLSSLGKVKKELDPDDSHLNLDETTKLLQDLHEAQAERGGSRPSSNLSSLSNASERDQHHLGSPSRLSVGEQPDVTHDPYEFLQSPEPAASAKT
Assay: BRD9-GFP protein abundance flow cytometry assay in HEK293A cells
Format: cell-based
Settings: HEK293A-BRD9-GFP-CHYSEL-mCherry cells; for BRD9 Deg Amax %: 24 h, % protein remaining at the concentration at which maximum degradation is seen; for DC50: 24 h at 37° C., 10-point 1:3 dilution, concentration at which 50% maximal degradation was observed
Outline: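 HEK293A cells stably express bicistronic BRD9-GFP-CHYSEL-mCherry and received 24 h treatment at 37° C with a 10-point, 3-fold dilution series from […], in 0.1% DMSO and duplicate. Median GFP/mCherry ratio of 5,000 single cells by flow cytometry, normalized to mCherry-only cells (0%) and DMSO (100%), gave DC50 and Amax (% protein remaining).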

BRD9 Deg Amax % | DC50 | SMILES
19.48% | 1 nM | CCCCn1cc(-c2ccc(O[C@@H]3CCN(CC4CCN(C(=O)c5ccc(OC)c(N6CCC(=O)NC6=O)c5)CC4)C[C@H]3F)c(F)c2)c2ccncc2c1=O [Compound E29, 1-(5-(4-(((3R,4R)-4-(4-(2-butyl-1-oxo-1,2-dihydro-2,7-naphthyridin-4-yl)-2-fluorophenoxy)-3-fluoropiperidin-1-yl)methyl)piperidine-1-carbonyl)-2-methoxyphenyl)dihydropyrimidine-2,4(1H,3H)-dione]
11.95% | 29 nM | COc1cc(-c2cn(C)c(=O)c3cnccc23)cc(OC)c1CN1CCC(OC2CCN(CCn3cccc(CN4CCC(=O)NC4=O)c3=O)CC2)CC1 [Compound C2, 1-((1-(2-(4-((1-(2,6-dimethoxy-4-(2-methyl-1-oxo-1,2-dihydro-2,7-naphthyridin-4-yl)benzyl)piperidin-4-yl)oxy)piperidin-1-yl)ethyl)-2-oxo-1,2-dihydropyridin-3-yl)methyl)dihydropyrimidine-2,4(1H,3H)-dione]
14.27% | 11 nM | CCCn1cc(-c2cc(OC)c(CCN3CCC(OC4CCN(CCn5cccc(CN6CCC(=O)NC6=O)c5=O)CC4)CC3)c(OC)c2)c(C)c(C)c1=O [Compound E23, 1-((1-(2-(4-((1-(4-(4,5-dimethyl-6-oxo-1-propyl-1,6-dihydropyridin-3-yl)-2,6-dimethoxyphenethyl)piperidin-4-yl)oxy)piperidin-1-yl)ethyl)-2-oxo-1,2-dihydropyridin-3-yl)methyl)dihydropyrimidine-2,4(1H,3H)-dione]
18.57% | 4 nM | CCCn1cc(-c2cc(OC)c(CCN3CC[C@@H](OC4CCN(CCn5cccc(CN6CCC(=O)NC6=O)c5=O)CC4)[C@H](F)C3)c(OC)c2)c(C)c(C)c1=O [Compound E7, 1-((1-(2-(4-(((3R,4R)-1-(4-(4,5-Dimethyl-6-oxo-1-propyl-1,6-dihydropyridin-3-yl)-2,6-dimethoxyphenethyl)-3-fluoropiperidin-4-yl)oxy)piperidin-1-yl)ethyl)-2-oxo-1,2-dihydropyridin-3-yl)methyl)dihydropyrimidine-2,4(1H,3H)-dione]
15.90% | 6 nM | CCCCn1cc(-c2ccc(O[C@H]3CC[C@@H](OC4CCN(CCn5cccc(CN6CCC(=O)NC6=O)c5=O)CC4)CC3)cc2)c2ccncc2c1=O [Compound E35, 1-((1-(2-(4-(((cis)-4-(4-(2-butyl-1-oxo-1,2-dihydro-2,7-naphthyridin-4-yl)phenoxy)cyclohexyl)oxy)piperidin-1-yl)ethyl)-2-oxo-1,2-dihydropyridin-3-yl)methyl)dihydropyrimidine-2,4(1H,3H)-dione]
10.51% | 29 nM | CCCCCCn1cc(-c2cc(OC)c(CN3CCC(OC4CCN(C(=O)c5ccc(OC)c(N6CCC(=O)NC6=O)c5)CC4)CC3)c(OC)c2)c2ccncc2c1=O [Compound E40, 1-(5-(4-((1-(4-(2-Hexyl-1-oxo-1,2-dihydro-2,7-naphthyridin-4-yl)-2,6-dimethoxybenzyl)piperidin-4-yl)oxy)piperidine-1-carbonyl)-2-methoxyphenyl)dihydropyrimidine-2,4(1H,3H)-dione]
18.10% | 1 nM | CCCCn1cc(-c2cc(F)c(O[C@@H]3CCN(CCC4CCN(C(=O)c5ccc(OC)c(N6CCC(=O)NC6=O)c5)CC4)C[C@H]3F)c(F)c2)c2ccncc2c1=O [Compound E14, 1-(5-(4-(2-((3R,4R)-4-(4-(2-butyl-1-oxo-1,2-dihydro-2,7-naphthyridin-4-yl)-2,6-difluorophenoxy)-3-fluoropiperidin-1-yl)ethyl)piperidine-1-carbonyl)-2-meth-oxyphenyl)dihydro-pyrimidine-2,4(1H,3H)-dione]
21.29% | 9 nM | CCCCn1cc(-c2cc(F)c(OC3CCN(CCC4CCN(C(=O)c5ccc(OC)c(N6CCC(=O)NC6=O)c5)CC4)CC3)c(F)c2)c2ccncc2c1=O [Compound E6, 1-(5-(4-(2-(4-(4-(2-butyl-1-oxo-1,2-dihydro-2,7-naphthyridin-4-yl)-2,6-difluorophenoxy)piperidin-1-yl)ethyl)piperidine-1-carbonyl)-2-methoxyphenyl)dihydropyrimidine-2,4(1H,3H)-dione]
12.80% | 6 nM | CCCCn1cc(-c2cc(OC)c(CN3CC[C@@H](OC4CCN(C(=O)c5ccc(OC)c(N6CCC(=O)NC6=O)c5)CC4)[C@H](F)C3)cc2OC)c2ccncc2c1=O [Compound E36, 1-(5-(4-(((3R,4R)-1-(4-(2-butyl-1-oxo-1,2-dihydro-2,7-naphthyridin-4-yl)-2,5-dimethoxybenzyl)-3-fluoropiperidin-4-yl)oxy)piperidine-1-carbonyl)-2-methoxyphenyl)dihydropyrimidine-2,4(1H,3H)-dione]
18.33% | 4 nM | CCCCn1cc(-c2ccc(CN3CCC(OC4CCN(C(=O)c5ccc(OC)c(N6CCC(=O)NC6=O)c5)CC4)CC3)c(F)c2)c2ccncc2c1=O [Compound E54, 1-(5-(4-((1-(4-(2-butyl-1-oxo-1,2-dihydro-2,7-naphthyridin-4-yl)-2-fluorobenzyl)piperidin-4-yl)oxy)piperidine-1-carbonyl)-2-methoxyphenyl)dihydropyrimidine-2,4(1H,3H)-dione]

The next lines start with the molecule.

SMILES | BRD9 Deg Amax % | DC50
COc1cc(-c2cn(C)c(=O)c3cnccc23)cc(OC)c1CCN1CCC(OC2CCN(C(=O)c3ccc(Cl)c(N4CCC(=O)NC4=O)c3)CC2)CC1 [Compound A38, 1-(2-Chloro-5-(4-((1-(2,6-dimethoxy-4-(2-methyl-1-oxo-1,2-dihydro-2,7-naphthyridin-4-yl)phenethyl)piperidin-4-yl)oxy)piperidine-1-carbonyl)phenyl)dihydropyrimidine-2,4(1H,3H)-dione] | 15.53% | 1 nM
COc1cc(-c2cn(C)c(=O)c(C)c2C)cc(OC)c1CCN1CCC(OC2CCN(C(=O)c3cccc(N4CCC(=O)NC4=O)c3)CC2)CC1 [Compound A22, 1-(3-(4-((1-(2,6-Dimethoxy-4-(1,4,5-trimethyl-6-oxo-1,6-dihydropyridin-3-yl)phenethyl)piperidin-4-yl)oxy)piperidine-1-carbonyl)phenyl)dihydropyrimidine-2,4(1H,3H)-dione] | 11.18% | 6 nM
COc1cc(-c2cn(C)c(=O)c3cnccc23)cc(OC)c1CCCN1CCC(OC2CCN(C(=O)c3ccc(Cl)c(N4CCC(=O)NC4=O)c3)CC2)CC1 [Compound A28, 1-(2-Chloro-5-(4-((1-(3-(2,6-dimethoxy-4-(2-methyl-1-oxo-1,2-dihydro-2,7-naphthyridin-4-yl)phenyl)propyl)piperidin-4-yl)oxy)piperidine-1-carbonyl)phenyl)dihydropyrimidine-2,4(1H,3H)-dione] | 22.70% | 2 nM
COc1ccc(C(=O)N2CCC(OC3CCN(CCc4c(OC)cc(-c5cn(C)c(=O)c6cnccc56)cc4OC)CC3)CC2)cc1N1CCC(=O)NC1=O [Compound A32, 1-(5-(4-((1-(2,6-Dimethoxy-4-(2-methyl-1-oxo-1,2-dihydro-2,7-naphthyridin-4-yl)phenethyl)piperidin-4-yl)oxy)piperidine-1-carbonyl)-2-methoxyphenyl)dihydropyrimidine-2,4(1H,3H)-dione] | 16.20% | 6 nM
COc1ccc(C(=O)N2CCC(CN3CCN(Cc4c(OC)cc(-c5cn(C)c(=O)c6cnccc56)cc4OC)CC3)CC2)cc1N1CCC(=O)NC1=O [Compound A24, 1-(5-(4-((4-(2,6-Dimethoxy-4-(2-methyl-1-oxo-1,2-dihydro-2,7-naphthyridin-4-yl)benzyl)piperazin-1-yl)methyl)piperidine-1-carbonyl)-2-methoxyphenyl)dihydropyrimidine-2,4(1H,3H)-dione] | 13.31% | 27 nM
COc1cc(-c2cn(C)c(=O)c(C)c2C)c(OC)cc1CN1CCC(OC2CCN(C(=O)c3ccc(Cl)c(N4CCC(=O)NC4=O)c3)CC2)CC1 [Compound A18, 1-(2-Chloro-5-(4-((1-(2,5-dimethoxy-4-(1,4,5-trimethyl-6-oxo-1,6-dihydropyridin-3-yl)benzyl)piperidin-4-yl)oxy)piperidine-1-carbonyl)phenyl)dihydropyrimidine-2,4(1H,3H)-dione] | 11.83% | 15 nM
COc1cc(-c2cn(C)c(=O)c3cnccc23)c(OC)cc1CN1CCC(OC2CCN(C(=O)c3ccc(Cl)c(N4CCC(=O)NC4=O)c3)CC2)CC1 [Compound A30, 1-(2-Chloro-5-(4-((1-(2,5-dimethoxy-4-(2-methyl-1-oxo-1,2-dihydro-2,7-naphthyridin-4-yl)benzyl)piperidin-4-yl)oxy)piperidine-1-carbonyl)phenyl)dihydropyrimidine-2,4(1H,3H)-dione] | 13.99% | 16 nM
